Measured values published in patent US11168102B1, “Bicyclic heteroaryl compounds and uses thereof” (Revolution Medicines, Inc., priority 2019, dated 2021).
Like-named read-outs stand apart in the source and are kept apart here.

Test system: cellular pERK in PC-9 cells (EGFR Ex19Del)
Test: Potency assay: pERK (AlphaLISA SureFire Ultra p-ERK1/2) in PC-9 cells
Type: cell-based
Conditions: read-out: SOS1 pERK IC50
[1] = Homo sapiens, PC-9, 1 h, PC-9 cells (EGFR Ex19Del), 1 hour incubation, AlphaLISA SureFire Ultra p-ERK1/2
[2] = PC-9 cells (EGFR Ex19Del), 1 hour incubation, AlphaLISA SureFire Ultra p-ERK1/2

SMILES	IC50 [1]	other results
COC(=O)N1CCC(OC)(c2cc3c(N[C@H](C)c4cccc(C(F)F)c4F)ncnc3n(C)c2=O)CC1 [Example 32-61]	115 nM	–
COC1(c2cc3c(N[C@H](C)c4cccc(C(F)F)c4F)ncnc3n(C)c2=O)CCS(=O)(=O)C(C)C1 (stereo partly drawn) [Example 32-64]	–	IC50 [2]: 154 nM
COC1(c2cc3c(N[C@H](C)c4cccc(C(F)F)c4F)ncnc3n(C)c2=O)CCS(=O)(=O)C(C)C1 (stereo partly drawn) [Example 32-65]	–	IC50 [2]: 50.3 nM
COC1(c2cc3c(N[C@H](C)c4cccc(C(F)F)c4F)ncnc3n(C)c2=O)CCS(=O)(=O)C(C)C1 (stereo partly drawn) [Example 32-66]	–	IC50 [2]: 127 nM
C[C@@H](Nc1ncnc2c1cc(C1CC3(C1)CS(=O)(=O)C3)c(=O)n2C)c1cccc(C(F)F)c1F [Example 33, 6-(4-{[(1R)-1-[3-(difluoromethyl)-2-fluorophenyl]ethyl]amino}-8-methyl-7-oxo-7H,8H-pyrido[2,3-d]pyrimidin-6-yl)-2λ^6-thiaspiro[3.3]heptane-2,2-dione]	145 nM	–
C[C@@H](Nc1ncnc2c1cc(C1CCS(=O)(=O)CC1)c(=O)n2C)c1cccc(C(F)F)c1Cl [Example 33-4]	92.5 nM	–
C[C@@H](Nc1ncnc2c1cc(C1CN(S(C)(=O)=O)C1)c(=O)n2C)c1cccc(C(F)F)c1F [Example 33-7]	521 nM	–
CC1CC(c2cc3c(N[C@H](C)c4cccc(C(F)F)c4F)ncnc3n(C)c2=O)CCS1(=O)=O (stereo partly drawn) [Example 33-8]	–	IC50 [2]: 54.7 nM
CC1CC(c2cc3c(N[C@H](C)c4cccc(C(F)F)c4F)ncnc3n(C)c2=O)CCS1(=O)=O (stereo partly drawn) [Example 33-9]	–	IC50 [2]: 270 nM
C[C@@H](Nc1ncnc2c1cc(C1CCN(S(C)(=O)=O)C1)c(=O)n2C)c1cccc(C(F)F)c1F (stereo partly drawn) [Example 33-10]	335 nM	–
CC(=O)N1CC(c2cc3c(N[C@H](C)c4cccc(C(F)F)c4F)ncnc3n(C)c2=O)C1 [Example 33-11]	169 nM	–
CC1CC(c2cc3c(N[C@H](C)c4cccc(C(F)F)c4F)ncnc3n(C)c2=O)CCS1(=O)=O (stereo partly drawn) [Example 33-12]	–	IC50 [2]: 40.7 nM
CC1CC(c2cc3c(N[C@H](C)c4cccc(C(F)F)c4F)ncnc3n(C)c2=O)CCS1(=O)=O (stereo partly drawn) [Example 33-13]	–	IC50 [2]: 21 nM
CC(=O)N1CC[C@@H](c2cc3c(N[C@H](C)c4cccc(C(F)F)c4F)ncnc3n(C)c2=O)C1 [Example 33-14]	271 nM	–
CC(=O)N1CC[C@H](c2cc3c(N[C@H](C)c4cccc(C(F)F)c4F)ncnc3n(C)c2=O)C1 [Example 33-15]	113 nM	–
C[C@@H](Nc1ncnc2c1cc(C1CS(=O)(=O)C1)c(=O)n2C)c1cccc(C(F)F)c1F [Example 33-16]	87.9 nM	–
C[C@@H](Nc1ncnc2c1cc(C1CCS(=O)(=O)CC1)c(=O)n2C)c1cccc(-c2ccccc2CN)c1 [Example 33-17]	285 nM	–
C[C@@H](Nc1ncnc2c1cc(C1CCS(=O)(=O)CC1)c(=O)n2C)c1ccc(-c2ccccc2CCN)s1 [Example 33-19]	182 nM	–
C[C@@H](Nc1ncnc2c1cc(C1CCS(=O)(=O)C1)c(=O)n2C)c1cccc(C(F)F)c1F (stereo partly drawn) [Example 33-20]	–	IC50 [2]: 52.7 nM
C[C@@H](Nc1ncnc2c1cc(C1CCS(=O)(=O)C1)c(=O)n2C)c1cccc(C(F)F)c1F (stereo partly drawn) [Example 33-21]	–	IC50 [2]: 52.2 nM
C[C@@H](Nc1ncnc2c1cc(C1CCP(C)(=O)CC1)c(=O)n2C)c1cccc(C(F)F)c1F (stereo partly drawn) [Example 33-22]	–	IC50 [2]: 1200 nM
C[C@@H](Nc1ncnc2c1cc(C1CCP(C)(=O)CC1)c(=O)n2C)c1cccc(C(F)F)c1F (stereo partly drawn) [Example 33-23]	–	IC50 [2]: 85.4 nM
C[C@@H](Nc1ncnc2c1cc(C1CCS(=O)(=NC(N)=O)CC1)c(=O)n2C)c1cccc(C(F)F)c1F (stereo partly drawn) [Example 33-24]	293 nM	–
C[C@@H](Nc1ncnc2c1cc(C1CCS(=N)(=O)CC1)c(=O)n2C)c1cccc(C(F)F)c1F (stereo partly drawn) [Example 35, (R)-4-((1-(3-(difluoromethyl)-2-fluorophenyl)ethyl)amino)-6-(1-imino-1-oxidohexahydro-1λ^6-thiopyran-4-yl)-8-methylpyrido[2,3-d]pyrimidin-7(8H)-one]	–	IC50 [2]: 127 nM
C[C@@H](Nc1ncnc2c1cc(C1(C#N)CCN(C)CC1)c(=O)n2C)c1cccc(C(F)F)c1F [Example 36-2]	–	IC50 (Homo sapiens, PC-9, 1 h): 63 nM
CC(=O)N1CC(C#N)(c2cc3c(N[C@H](C)c4cccc(C(F)F)c4F)ncnc3n(C)c2=O)C1 [Example 36-3]	181 nM	–
C[C@@H](Nc1ncnc2c1cc(C1(C#N)CCN(S(C)(=O)=O)C1)c(=O)n2C)c1cccc(C(F)F)c1F (stereo partly drawn) [Example 36-4]	91 nM	–
CC(=O)N1CCC(C#N)(c2cc3c(N[C@H](C)c4cccc(C(F)F)c4F)ncnc3n(C)c2=O)C1 (stereo partly drawn) [Example 36-5]	124 nM	–
C[C@@H](Nc1ncnc2c1cc(C1(C#N)CN(S(C)(=O)=O)C1)c(=O)n2C)c1cccc(C(F)F)c1F [Example 36-7]	772 nM	–
CC(=O)N1CC[C@@](C#N)(c2cc3c(N[C@H](C)c4cccc(C(F)F)c4F)ncnc3n(C)c2=O)C1 [Example 36-11]	268 nM	–

The next lines start with results.

IC50 [1]	SMILES	other results
13.3 nM	COC1(c2cc3c(N[C@H](C)c4cccc(C(F)F)c4F)nc(C)nc3n(C)c2=O)CCN(C(C)=O)C1 (stereo partly drawn) [Example 32-58]	–
20.3 nM	COC1(c2cc3c(N[C@H](C)c4cccc(C(F)F)c4F)ncnc3n(C)c2=O)CCC(S(C)(=O)=O)CC1 (stereo partly drawn) [Example 32-59]	–
21.1 nM	COC1(c2cc3c(N[C@H](C)c4cccc(C(F)F)c4F)ncnc3n(C)c2=O)CCN(C=O)CC1 [Example 32-60]	–
10.8 nM	CO[C@]1(c2cc3c(N[C@H](C)c4cccc(C(F)F)c4F)nc(C)nc3n(C)c2=O)CCN(C(C)=O)C1 [Example 32-62]	–
71.6 nM	C[C@@H](Nc1ncnc2c1cc(C1CCC3(CC1)CS(=O)(=O)C3)c(=O)n2C)c1cccc(C(F)F)c1F [Example 33-2]	–
34.8 nM	C[C@@H](Nc1ncnc2c1cc(C1CCS(=O)(=O)CC1)c(=O)n2C)c1cccc2c1OCC2(F)F [Example 33-3]	–
41.2 nM	Cc1c(C(F)F)cccc1[C@@H](C)Nc1ncnc2c1cc(C1CCS(=O)(=O)CC1)c(=O)n2C [Example 33-5]	–
53.2 nM	C[C@@H](Nc1ncnc2c1cc(C1CCS(=O)(=O)CC1)c(=O)n2C)c1ccc(-c2ccccc2CN)s1 [Example 33-18]	–
73.8 nM	[2H]C(=O)N1CCC(c2cc3c(N[C@H](C)c4cccc(C(F)F)c4F)ncnc3n(C)c2=O)CC1 [Example 33-25]	–
28.1 nM	CC(=O)N1CCC(C#N)(c2cc3c(N[C@H](C)c4cccc(C(F)F)c4F)ncnc3n(C)c2=O)CC1 [Example 36, 1-acetyl-4-(4-{[(1R)-1-[3-(difluoromethyl)-2-fluorophenyl]ethyl]amino}-8-methyl-7-oxo-7H,8H-pyrido[2,3-d]pyrimidin-6-yl)piperidine-4-carbonitrile]	–
11.6 nM	C[C@@H](Nc1ncnc2c1cc(C1(C#N)CCS(=O)(=O)CC1)c(=O)n2C)c1cccc(C(F)F)c1F [Example 36-1]	–
33.3 nM	C[C@@H](Nc1ncnc2c1cc(C1(C#N)CC3(C1)CS(=O)(=O)C3)c(=O)n2C)c1cccc(C(F)F)c1F [Example 36-6]	–
38.8 nM	C[C@@H](Nc1ncnc2c1cc(C1(C#N)CCC3(CC1)CS(=O)(=O)C3)c(=O)n2C)c1cccc(C(F)F)c1F [Example 36-8]	–
86.9 nM	CC(=O)N1CCCC(C#N)(c2cc3c(N[C@H](C)c4cccc(C(F)F)c4F)ncnc3n(C)c2=O)CC1 (stereo partly drawn) [Example 36-9]	–
44 nM	CC(=O)N1CC[C@](C#N)(c2cc3c(N[C@H](C)c4cccc(C(F)F)c4F)ncnc3n(C)c2=O)C1 [Example 36-10]	–
